Measured values taken from patent US11306102B2, “1,3-di-substituted ketene compound and application thereof” (BEBETTER MED INC., priority 2017, dated 2022).

Tests used:
PPARδ = target: T1, PPARδ (Homo sapiens, UniProt Q03181); assay: Hela cell/luciferase reporter gene method, PPARδ agonist activity; type: cell-based; conditions: for EC50: Hela cells, pPPRE3-TK-Luciferase reporter, 24 hrs incubation, read-out: agonistic activity on PPARδ (EC50)
T1 construct: expressed in transfected cells; host or cells: Hela cells
T1 sequence (Q03181 1-441): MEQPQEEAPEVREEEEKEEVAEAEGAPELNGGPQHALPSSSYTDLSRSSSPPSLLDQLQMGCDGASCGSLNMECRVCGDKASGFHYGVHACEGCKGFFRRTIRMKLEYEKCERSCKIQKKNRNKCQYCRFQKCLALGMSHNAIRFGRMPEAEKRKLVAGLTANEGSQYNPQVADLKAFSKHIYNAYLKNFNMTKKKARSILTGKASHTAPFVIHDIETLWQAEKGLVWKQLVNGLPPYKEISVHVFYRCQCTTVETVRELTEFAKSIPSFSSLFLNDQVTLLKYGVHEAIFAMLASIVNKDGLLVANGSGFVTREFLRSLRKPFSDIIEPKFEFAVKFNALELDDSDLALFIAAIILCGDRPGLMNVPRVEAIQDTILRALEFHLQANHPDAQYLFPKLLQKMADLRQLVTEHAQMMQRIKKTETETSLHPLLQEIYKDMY
Experimental: This example measures the biological activity of a PPAR agonist using the Hela cell/luciferase reporter gene method.
The target plasmids PCMV PPARα (Ampicillin+), PCMV PPARγ (Ampicillin+), PCMV PPARδ (Ampicillin+), and pPPRE3-TK-Luciferase (Ampicillin+) were introduced into DH5a competent cells by heat shock treatment, respectively. After being incubated for 1 hour at 37° C. with shaking (180 rpm), the cells were inoculated on LB agar solid medium containing antibiotic Ampicillin, and invertedly cultured at 37° C. for 12-16 hours. Then the monoclonal colony cultured on the medium was taken and inoculated into LB liquid medium for expanded culture. […] The plasmid obtained by centrifugation was suspended in TE buffer, and the plasmid concentration was measured and the mixture was stored at −20° C. Hela cells in the exponential phase were seeded in 6-well plates (8-10^5 cells/well), and after 6-8 hours of culture, the cells were transfected using Lipofectamine® 3000 Transfection Reagent (Invitrogen; #L3000015). A plasmid containing a PPAR binding site (peroxisome proliferator response element, PPRE) and a firefly luciferase gene (pPPRE3-TK-Luciferase) and PPAR expression vector were co-transfected into a Hela cell with a total amount of plasmid DNA of 2.5 ug (the mass ratio of each PPAR expression vector is pPPRE:PPARα=6:1, pPPRE:PPARδ=8:1, and pPPRE:PPARγ=2:1) to construct a drug screening cell model for PPAR agonists. PPAR was binded to the ligand and then binded to the peroxisome proliferator response element (PPRE), thereby initiating downstream firefly luciferase expression and its expression intensity was directly proportional to the degree of PPAR activation. The cells after 24 hours transfection were prepared into a cell suspension with a cell concentration of […] by a complete culture solution, and seeded into a 96-well plate with 100 ul per well. After overnight culture, the medium was changed to a medium containing 1% FBS. 10 mM candidate compound stock (1000×) were 4-fold diluted in DMSO for 8 points, then supplemented with medium containing 1% FBS to a final concentration of 50 uM (5×) by addition of 25 μl of 5× compound diluent to each well in different concentration gradients and incubated under 37° C., 5% CO2 incubator for 24 hrs. The 96-well plate was taken out and 30 μl of Bright-Glo™ Luciferase Assay System (Promega #E2620) was added to each well. The Luciferase luminescence intensity was measured by a SynergyH1 full-function microplate detector. The obtained data was used to calculate EC50 using GraphPad Prism 5.0 software to determine the biological activity of the compound.

[1] = Pharmacokinetic (PK) experiments after intragastric administration in rats; type: in vivo, SD rats; conditions: for AUC(0-inf) / AUC(0-t) / Cmax / Tmax / half-life: male, SD, rat, plasma, po, intragastric administration 20 mg/kg; for half-life: read-out: Terminal T1/2 (converted)
Experimental: Male SD rats, weighing 250-300 grams, were fasted overnight before testing. The test compound was dissolved in 30% sulfobutyl-R-cyclodextrin (SBE-β-CD) and administered intragastrically at a dose of 20 mg/kg. Blood was collected 15 minutes, 30 minutes, and 1, 2, 3, 4, […] and 24 hours after the administration. About 0.3 ml of blood was collected at each time point, placed in a centrifuge tube containing K2-EDTA (dipotassium ethylenediamine tetraacetate) and centrifuged (2,000 g, 10 minutes, 4° C.) to take the plasma, which was stored in an ultra-low temperature refrigerator at −80° C. A 50 μL plasma sample was mixed with 5 μl of internal standard (IS) and extracted with ethyl acetate. The residue was redissolved in acetonitrile after drying under vacuum. The sample was filtered and injected into an LC-MS/MS for analysis.

| SMILES | EC50 (PPARδ) | AUC(0-inf) [1] | AUC(0-t) [1] | Cmax [1] | Tmax [1] | half-life [1] | absorption after oral administration compared with Elafibranor (in words) [1] | blood exposure after oral administration compared with Elafibranor (in words) [1] | half-life after oral administration compared with Elafibranor (in words) [1] | increased activity for activation of PPARδ compared with Elafibranor (PPARδ; compared with Elafibranor) |
| --- | --- | --- | --- | --- | --- | --- | --- | --- | --- | --- |
| CSc1ccc2c(C)c(C(=O)/C=C/c3cc(C)c(OC(C)(C)C(=O)O)c(C)c3)oc2c1 [Compound 62, (E)-2-(2,6-dimethyl-4-(3-(3-methyl-6-(methylthio)benzofuran-2-yl)-3-oxoprop-1-en-1-yl)phenoxy)-2-methylpropanoic acid] | 0.21 µM | 3150 ng·h/mL | 3040 ng·h/mL | 1830 ng/mL | 0.25 h | 8.87 h | good absorption | highly effective blood exposure | significantly prolonged half-life |  |
| CCc1c(C(=O)/C=C/c2cc(C)c(OC(C)(C)C(=O)O)c(C)c2)oc2cc(SC)ccc12 [Compound 63, (E)-2-(4-(3-(3-ethyl-6-(methylthio)benzofuran-2-yl)-3-oxoprop-1-en-1-yl)-2,6-dimethylphenoxy)-2-methylpropanoic acid] | 0.205 µM | 1720 ng·h/mL | 1700 ng·h/mL | 812 ng/mL | 0.25 h | 4.3 h | good absorption | highly effective blood exposure | significantly prolonged half-life |  |
| CSc1ccc2c(C)c(C(=O)/C=C/c3cc(Cl)c(OC(C)(C)C(=O)O)c(Cl)c3)oc2c1 [Compound 103, (E)-2-(2,6-dichloro-4-(3-(3-methyl-6-(methylthio)benzofuran-2-yl)-3-oxoprop-1-en-1-yl)phenoxy)-2-methylpropanoic acid] | 0.164 µM | 50900 ng·h/mL | 50400 ng·h/mL | 5030 ng/mL | 4.08 h | 3.28 h | good absorption | highly effective blood exposure | significantly prolonged half-life |  |
| CSc1ccc(C(=O)/C=C/c2cc(C)c(OC(C)(C)C(=O)O)c(C)c2)c2occc12 [Compound 5, (E)-2-(2,6-dimethyl-4-(3-(4-(methylthio)benzofuran-7-yl)-3-oxoprop-1-en-1-yl)phenoxy)-2-methylpropanoic acid] | 0.036 µM | 3240 ng·h/mL | 3110 ng·h/mL | 2850 ng/mL | 0.25 h | 12.3 h | good absorption | highly effective blood exposure | significantly prolonged half-life |  |
| CSc1ccc2cc(C(=O)/C=C/c3cc(C)c(OC(C)(C)C(=O)O)c(C)c3)oc2c1 [Compound 51, (E)-2-(2,6-dimethyl-4-(3-(6-(methylthio)benzofuran-2-yl)-3-oxoprop-1-en-1-yl)phenoxy)-2-methylpropanoic acid] | 0.0649 µM | 479 ng·h/mL | 412 ng·h/mL | 484 ng/mL | 0.25 h | 12.3 h | good absorption | highly effective blood exposure | significantly prolonged half-life | 2 fold |
| CCSc1ccc(C(=O)/C=C/c2cc(C)c(OC(C)(C)C(=O)O)c(C)c2)c2occc12 [Compound 6, (E)-2-(4-(3-(4-(ethylthio)benzofuran-7-yl)-3-oxoprop-1-en-1-yl)-2,6-dimethylphenoxy)-2-methylpropanoic acid] | 0.119 µM |  |  |  |  |  |  |  |  |  |
| Cc1cc(/C=C/C(=O)c2ccc3c(c2)CCS3)cc(C)c1OC(C)(C)C(=O)O [Compound 36, (E)-2-(4-(3-(2,3-dihydrobenzo[b]thiophen-5-yl)-3-oxoprop-1-en-1-yl)-2,6-dimethylphenoxy)-2-methylpropanoic acid] | 0.12 µM | 3380 ng·h/mL | 3340 ng·h/mL | 2740 ng/mL | 0.38 h | 6.42 h | good absorption | highly effective blood exposure | significantly prolonged half-life |  |

Continued by falling EC50 (PPARδ), values first:

| EC50 (PPARδ) | AUC(0-inf) [1] | AUC(0-t) [1] | Cmax [1] | Tmax [1] | half-life [1] | absorption after oral administration compared with Elafibranor (in words) [1] | blood exposure after oral administration compared with Elafibranor (in words) [1] | half-life after oral administration compared with Elafibranor (in words) [1] | increased activity for activation of PPARδ compared with Elafibranor (PPARδ; compared with Elafibranor) | SMILES |
| --- | --- | --- | --- | --- | --- | --- | --- | --- | --- | --- |
| 3.64 µM | 811 ng·h/mL | 806 ng·h/mL | 302 ng/mL | 0.25 h | 3.35 h | good absorption | highly effective blood exposure | significantly prolonged half-life |  | CSc1ccc2cc(C(=O)/C=C/c3cc(C)c(OC(C)(C)C(=O)O)c(C)c3)sc2c1 [Compound 81, (E)-2-(2,6-dimethyl-4-(3-(6-(methylthio)benzo[b]thiophen-2-yl)-3-oxoprop-1-en-1-yl)phenoxy)-2-methylpropanoic acid] |
| 0.614 µM |  |  |  |  |  |  |  |  |  | CSc1cccc2oc(C(=O)/C=C/c3cc(C)c(OC(C)(C)C(=O)O)c(C)c3)cc12 [Compound 60, (E)-2-(2,6-dimethyl-4-(3-(4-(methylthio)benzofuran-2-yl)-3-oxoprop-1-en-1-yl)phenoxy)-2-methylpropanoic acid] |
| 0.604 µM |  |  |  |  |  |  |  |  |  | CSc1ccc(C(=O)/C=C/c2cc(C)c(OC(C)(C)C(=O)O)c(C)c2)c2ccoc12 [Compound 27, (E)-2-(2,6-dimethyl-4-(3-(7-(methylthio)benzofuran-4-yl)-3-oxoprop-1-en-1-yl)phenoxy)-2-methylpropanoic acid] |
| 0.144 µM |  |  |  |  |  |  |  |  |  | CCSc1ccc2c(C)c(C(=O)/C=C/c3cc(C)c(OC(C)(C)C(=O)O)c(C)c3)oc2c1 [Compound 74, (E)-2-(4-(3-(6-(ethylthio)-3-methylbenzofuran-2-yl)-3-oxoprop-1-en-1-yl)-2,6-dimethylphenoxy)-2-methylpropanoic acid] |
| 0.0871 µM | 14000 ng·h/mL | 13800 ng·h/mL | 7730 ng/mL | 0.25 h | 4.41 h | good absorption | highly effective blood exposure | significantly prolonged half-life |  | CSc1ccc2cc(C(=O)/C=C/c3cc(Cl)c(OC(C)(C)C(=O)O)c(Cl)c3)oc2c1 [Compound 100, (E)-2-(2,6-dichloro-4-(3-(6-(methylthio)benzofuran-2-yl)-3-oxoprop-1-en-1-yl)phenoxy)-2-methylpropanoic acid] |
